Publication PMC9100920, “Crosstalk between β2- and α2-Adrenergic Receptors in the Regulation of B16F10 Melanoma Cell Proliferation” (International Journal of Molecular Sciences, 2022)
Where two headings read alike, the source gives them in different places.

Biological target: T1, β2-AR (Mus musculus, UniProt P18762)
T1 construct: gene Adrb2
Test: GloSensor cAMP concentration-response in B16F10 cells (endogenous receptor), agonist
Assay type: cell-based

T1 sequence (P18762 whole entry): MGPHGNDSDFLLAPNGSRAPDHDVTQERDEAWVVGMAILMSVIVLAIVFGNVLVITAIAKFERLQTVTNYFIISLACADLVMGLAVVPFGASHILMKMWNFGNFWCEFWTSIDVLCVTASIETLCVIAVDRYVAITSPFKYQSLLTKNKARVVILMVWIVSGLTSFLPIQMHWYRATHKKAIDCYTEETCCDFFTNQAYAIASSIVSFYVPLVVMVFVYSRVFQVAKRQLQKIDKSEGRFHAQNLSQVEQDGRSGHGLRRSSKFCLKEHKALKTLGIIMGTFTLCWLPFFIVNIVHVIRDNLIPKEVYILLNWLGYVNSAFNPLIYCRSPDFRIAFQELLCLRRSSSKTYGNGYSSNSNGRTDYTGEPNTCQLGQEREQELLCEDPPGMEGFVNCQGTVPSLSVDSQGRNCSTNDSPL

SMILES	EC50 [nM]	EC50 (read-out: EC50) [nM]
CNC[C@H](O)c1ccc(O)c(O)c1 [EPI, epinephrine]	45	
NC[C@H](O)c1ccc(O)c(O)c1 [NE, norepinephrine]		284
